Tests used:
[1] = biological target: T1, Adrenergic receptor alpha-1 (Rattus norvegicus, UniProt P15823+P23944+P43140); assay: Alpha-1 adrenergic receptor binding affinity of the compound, value taken from literature; format: protein assay
T1 sequence (P15823 whole entry): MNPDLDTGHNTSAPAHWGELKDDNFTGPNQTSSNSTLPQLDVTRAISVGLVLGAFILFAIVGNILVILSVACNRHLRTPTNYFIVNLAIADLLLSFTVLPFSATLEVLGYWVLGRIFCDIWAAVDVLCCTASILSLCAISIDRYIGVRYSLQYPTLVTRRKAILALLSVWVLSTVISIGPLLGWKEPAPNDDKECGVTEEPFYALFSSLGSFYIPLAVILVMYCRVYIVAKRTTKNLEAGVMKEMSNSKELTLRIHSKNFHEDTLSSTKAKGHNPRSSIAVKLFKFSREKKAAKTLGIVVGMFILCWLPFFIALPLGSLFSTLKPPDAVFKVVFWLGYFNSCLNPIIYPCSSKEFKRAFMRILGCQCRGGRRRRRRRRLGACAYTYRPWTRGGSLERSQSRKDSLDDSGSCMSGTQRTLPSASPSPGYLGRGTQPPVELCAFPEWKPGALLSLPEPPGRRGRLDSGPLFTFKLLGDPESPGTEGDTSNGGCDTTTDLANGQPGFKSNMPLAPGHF
T1 sequence (P23944 whole entry): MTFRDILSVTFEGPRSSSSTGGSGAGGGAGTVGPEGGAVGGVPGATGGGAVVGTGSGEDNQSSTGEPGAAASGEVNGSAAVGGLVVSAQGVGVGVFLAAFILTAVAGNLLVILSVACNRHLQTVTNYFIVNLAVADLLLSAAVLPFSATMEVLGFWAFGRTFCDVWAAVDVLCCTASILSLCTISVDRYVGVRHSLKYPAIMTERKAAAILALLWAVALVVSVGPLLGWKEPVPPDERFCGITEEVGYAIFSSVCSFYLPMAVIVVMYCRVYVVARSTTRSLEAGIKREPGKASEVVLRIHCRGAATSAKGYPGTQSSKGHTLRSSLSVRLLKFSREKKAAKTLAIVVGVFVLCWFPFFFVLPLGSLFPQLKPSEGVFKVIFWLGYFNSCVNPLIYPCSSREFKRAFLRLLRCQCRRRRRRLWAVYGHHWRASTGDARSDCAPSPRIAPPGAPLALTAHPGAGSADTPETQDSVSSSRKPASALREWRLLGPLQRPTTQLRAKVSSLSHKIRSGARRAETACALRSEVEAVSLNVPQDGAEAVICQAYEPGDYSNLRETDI
T1 sequence (P43140 whole entry): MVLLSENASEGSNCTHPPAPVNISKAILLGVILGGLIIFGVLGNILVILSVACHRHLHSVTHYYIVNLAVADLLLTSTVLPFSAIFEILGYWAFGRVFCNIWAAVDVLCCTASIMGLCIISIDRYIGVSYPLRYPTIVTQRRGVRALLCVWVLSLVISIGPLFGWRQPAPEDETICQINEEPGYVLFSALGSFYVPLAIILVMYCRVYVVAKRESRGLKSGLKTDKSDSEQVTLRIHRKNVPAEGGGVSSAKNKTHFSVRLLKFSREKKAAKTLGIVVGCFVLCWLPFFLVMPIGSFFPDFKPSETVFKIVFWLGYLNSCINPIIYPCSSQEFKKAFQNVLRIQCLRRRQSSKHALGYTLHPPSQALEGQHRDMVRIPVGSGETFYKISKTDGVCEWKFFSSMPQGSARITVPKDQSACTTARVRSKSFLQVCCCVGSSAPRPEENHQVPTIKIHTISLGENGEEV

[2] = biological target: T1, Adrenergic receptor alpha-1; assay: Alpha-1-adrenergic receptor binding affinity of the compound, value taken from literature; format: protein assay
[3] = biological target: T1, Adrenergic receptor alpha-1; assay: Binding affinity towards alpha-1 adrenergic receptor in rat cortex membrane using [3H]-prazosin radioligand; format: cell membranes
[4] = biological target: T2, Adrenergic receptor alpha-2 (Rattus norvegicus, UniProt P22086+P19328+P22909); assay: Binding affinity towards alpha-2 adrenergic receptor in rat cortex membrane using [3H]rauwolscine radioligand; format: cell membranes
T2 sequence (P22086 whole entry): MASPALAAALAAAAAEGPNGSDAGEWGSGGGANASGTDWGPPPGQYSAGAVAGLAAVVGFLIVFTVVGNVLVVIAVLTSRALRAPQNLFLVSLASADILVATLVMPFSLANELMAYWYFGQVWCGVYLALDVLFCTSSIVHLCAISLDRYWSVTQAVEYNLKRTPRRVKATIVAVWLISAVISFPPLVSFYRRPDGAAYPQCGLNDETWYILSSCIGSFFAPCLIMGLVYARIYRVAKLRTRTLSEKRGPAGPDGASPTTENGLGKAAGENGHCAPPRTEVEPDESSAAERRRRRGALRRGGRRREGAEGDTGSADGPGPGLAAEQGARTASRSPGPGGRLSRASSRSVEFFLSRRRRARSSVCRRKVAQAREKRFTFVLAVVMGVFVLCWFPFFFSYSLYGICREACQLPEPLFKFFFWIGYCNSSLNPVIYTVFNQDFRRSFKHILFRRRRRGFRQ
T2 sequence (P19328 whole entry): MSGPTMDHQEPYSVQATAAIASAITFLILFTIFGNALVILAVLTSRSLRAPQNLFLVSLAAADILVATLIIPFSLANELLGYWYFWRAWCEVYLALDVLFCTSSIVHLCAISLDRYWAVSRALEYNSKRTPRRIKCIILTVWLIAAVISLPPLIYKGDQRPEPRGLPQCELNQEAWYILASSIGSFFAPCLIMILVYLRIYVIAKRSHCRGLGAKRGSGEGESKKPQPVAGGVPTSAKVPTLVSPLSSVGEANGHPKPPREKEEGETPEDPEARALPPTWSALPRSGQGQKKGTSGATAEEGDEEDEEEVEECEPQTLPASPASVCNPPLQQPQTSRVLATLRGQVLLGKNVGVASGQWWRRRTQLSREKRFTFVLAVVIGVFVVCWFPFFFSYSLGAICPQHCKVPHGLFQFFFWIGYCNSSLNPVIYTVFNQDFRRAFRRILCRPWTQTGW
T2 sequence (P22909 whole entry): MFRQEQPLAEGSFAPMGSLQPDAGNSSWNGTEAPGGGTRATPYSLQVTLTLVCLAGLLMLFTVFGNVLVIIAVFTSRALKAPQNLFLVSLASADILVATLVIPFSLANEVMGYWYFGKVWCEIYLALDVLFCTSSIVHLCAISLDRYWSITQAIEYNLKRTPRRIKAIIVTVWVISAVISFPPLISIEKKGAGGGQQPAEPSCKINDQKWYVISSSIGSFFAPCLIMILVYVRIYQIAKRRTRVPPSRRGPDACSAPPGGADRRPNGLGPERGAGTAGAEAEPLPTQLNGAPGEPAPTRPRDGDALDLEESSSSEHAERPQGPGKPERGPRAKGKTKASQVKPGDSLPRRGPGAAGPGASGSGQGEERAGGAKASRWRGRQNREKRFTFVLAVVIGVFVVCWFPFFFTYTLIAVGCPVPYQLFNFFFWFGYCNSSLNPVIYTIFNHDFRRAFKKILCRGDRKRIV

[5] = biological target: Adrenergic receptor alpha-2 (Rattus norvegicus) (UniProt P22086+P19328+P22909); assay: Ratio of binding affinity towards Alpha-2 and alpha-1 adrenergic receptor; format: protein assay

SMILES	Ki [1]	Ki [2]	Ki [3]	Ki [4]	Ratio [5]
COc1ccccc1N1CCN(CCNC(=O)C23CC4CC(CC(C4)C2)C3)CC1	17.5 nM	–	–	–	–
O=C1CCc2ccccc2N1CCCCN1CCN(c2ncccn2)CC1	374 nM	–	–	–	–
COc1ccccc1N1CCN(CCn2c(=O)[nH]c3c([nH]c4ccccc43)c2=O)CC1	–	0.21 nM	–	–	–
COc1ccccc1N1CCN(CCCCN2C(=O)CCC2=O)CC1	11.9 nM	–	–	–	–
CCC(=O)NCCN1CCN(c2ccccc2OC)CC1	258 nM	–	–	–	–
COc1ccccc1OCCN1CCN(c2ccc(=O)n(CCCCCCCN3CCN(c4ccccc4OC)CC3)n2)CC1	–	–	2.3 nM	45.8 nM	20
COc1ccccc1N1CCN(CCCCCCn2ncc(N3CCN(C(=O)c4ccco4)CC3)c(Cl)c2=O)CC1	–	–	4.1 nM	24.5 nM	6
COc1ccccc1OCCN1CCN(c2cnn(CCCCCCCCN3CCN(c4ccccc4Cl)CC3)c(=O)c2Cl)CC1	–	–	5.6 nM	22.8 nM	4
COc1ccccc1N1CCN(CCCCCCCn2ncc(N3CCN(C(=O)c4ccco4)CC3)c(Cl)c2=O)CC1	–	–	1.9 nM	520 nM	274
COc1ccccc1OCCN1CCN(c2cnn(CCCCCN3CCN(c4ccccc4Cl)CC3)c(=O)c2Cl)CC1	–	–	4.5 nM	29 nM	6.4
COc1ccccc1N1CCN(CCCCCCn2nc(N3CCN(C(=O)c4ccco4)CC3)ccc2=O)CC1	–	–	17.8 nM	100 nM	5.6
COc1ccccc1OCCN1CCN(c2cnn(CCCCN3CCN(c4ccccc4Cl)CC3)c(=O)c2Cl)CC1	–	–	10 nM	39.3 nM	4
O=C(c1ccco1)N1CCN(c2cnn(CCCCCCN3CCN(c4ccccc4Cl)CC3)c(=O)c2Cl)CC1	–	–	5.7 nM	66 nM	11.6
COc1ccccc1OCCN1CCN(c2cnn(CCN3CCN(c4ccccc4Cl)CC3)c(=O)c2Cl)CC1	–	–	58.8 nM	292.3 nM	5
O=C(c1ccco1)N1CCN(c2cnn(CCCN3CCN(c4ccccc4Cl)CC3)c(=O)c2Cl)CC1	–	–	3.5 nM	85 nM	24.3
COc1ccccc1OCCN1CCN(c2cnn(CCCCCCN3CCN(c4ccccc4Cl)CC3)c(=O)c2Cl)CC1	–	–	4.2 nM	25.2 nM	6
COc1ccccc1OCCN1CCN(c2ccc(=O)n(CCCCCCCN3CCN(c4ccccc4Cl)CC3)n2)CC1	–	–	15 nM	139 nM	9.3
COc1ccccc1OCCN1CCN(c2cnn(CCCN3CCN(c4ccccc4OC)CC3)c(=O)c2Cl)CC1	–	–	14.5 nM	245 nM	17
O=C(c1ccco1)N1CCN(c2cnn(CCN3CCN(c4ccccc4Cl)CC3)c(=O)c2Cl)CC1	–	–	3.9 nM	150 nM	38.4

Results, then the molecule that gave them:

Ki [1]	Ki [2]	Ki [3]	Ki [4]	Ratio [5]	SMILES
0.34 nM	–	–	–	–	COc1ccccc1N1CCN(CCCCN2C(=O)CCc3ccccc32)CC1
–	–	1.4 nM	4.6 nM	3.2	COc1ccccc1OCCN1CCN(c2cnn(CCCCCCCN3CCN(c4ccccc4OC)CC3)c(=O)c2Cl)CC1
–	–	34 nM	52.6 nM	1.5	O=C(c1ccco1)N1CCN(c2ccc(=O)n(CCN3CCN(c4ccccc4Cl)CC3)n2)CC1
–	–	20.4 nM	680 nM	33.3	COc1ccccc1N1CCN(CCCn2ncc(N3CCN(C(=O)c4ccco4)CC3)c(Cl)c2=O)CC1
–	–	33.5 nM	870 nM	26	COc1ccccc1N1CCN(CCCCn2ncc(N3CCN(C(=O)c4ccco4)CC3)c(Cl)c2=O)CC1
–	–	2.7 nM	7.4 nM	2.7	COc1ccccc1OCCN1CCN(c2cnn(CCCCCCCN3CCN(c4ccccc4Cl)CC3)c(=O)c2Cl)CC1
–	–	7 nM	71.8 nM	10.2	COc1ccccc1OCCN1CCN(c2ccc(=O)n(CCCCCCN3CCN(c4ccccc4OC)CC3)n2)CC1
–	–	64.5 nM	631 nM	9.8	COc1ccccc1N1CCN(CCCn2nc(N3CCN(C(=O)c4ccco4)CC3)ccc2=O)CC1
–	–	16 nM	409 nM	25.5	COc1ccccc1OCCN1CCN(c2cnn(CCN3CCN(c4ccccc4OC)CC3)c(=O)c2Cl)CC1
–	–	4.3 nM	230 nM	53	COc1ccccc1OCCN1CCN(c2cnn(CCCCN3CCN(c4ccccc4OC)CC3)c(=O)c2Cl)CC1
